Test results reported in patent US20130143873A1 (priority 2010, published 2013).

Tests used:
[1] = Blood glucose (hyperglycemia) after daily oral diazoxide in C57BL/6J mice; assay type: in vivo; details: female C57BL/6J mice; 1 mg/kg (3 mg/m^2) and 0.05 mg/kg (0.15 mg/m^2) p.o. daily; 30 days; glucose at time 0 and 60 minutes
Experimental: Female C57BL/6J mice, 11 weeks of age, were purchased from Charles River and maintained on a 12:12 hr light:dark cycle, with standard chow and water freely available. The experiments began at 11:00 h. […] From day 4 on, glucose blood levels were measured every 3-4 days during the 30-day treatment period. Measurements were performed immediately before drug administration (time 0) and at 60 minutes. Blood samples were obtained from the saphenous vein and glucose levels were determined using a glucometer and glucose test strips (Accu-Chek® Aviva, Roche Diagnostics, Indianapolis, Ind., USA). For each group, hyperglycemia was considered when glucose concentration was equal or higher than 176 mg/dl.

[2] = Blood glucose (hyperglycemia) after daily oral diazoxide in SOD1-G93A transgenic mice; assay type: in vivo; details: 4 mg/kg/day (12 mg/m^2/day) and 0.8 mg/kg/day (2.4 mg/m^2/day) p.o., 100 days, glucose at postnatal days 105, 115, 145
Experimental: (§1) Transgenic C57BL/6J-TgN(SOD1-G93A)1Gur^dl mice were originally purchased from The Jackson Laboratories (Bar Harbor, Me.) and routinely identified as positive carriers of the transgene at early postnatal age by PCR amplification (Garney et al. Motor neuron degeneration in mice that express a human Cu,Zn superoxide dismutase mutation. Science 1994. 264(5166):1772-5). The animal colony was kept under controlled temperature (22±2° C.), humidity (40-60%) and light (12 h cycles), and treated in accordance with the European Community Council directive on animal welfare (86/609/EEC).
At 40 days postnatal age, mice identified as positive carriers of the SOD1-G93A transgene were randomly assigned to a diazoxide-treatment or control group. The treatment started at postnatal day 45 and lasted until postnatal day 145. […] Each group consists of 3 animals.
Glucose blood levels were measured at postnatal days 105, 115 and 145. Measurements were performed immediately before drug administration (time 0) and at 60 minutes. Blood samples were obtained from the saphenous vein and glucose levels were determined using a glucometer and glucose test strips (Accu-Chek® Aviva, Roche Diagnostics, Indianapolis, Ind., USA). For each group, hyperglycemia was considered when glucose concentration was equal or higher than 176 mg/dl.

[3] = tested on: C57BL/6J-TgN(SOD1-G93A)1Gur^dl transgenic mice; assay: Survival in transgenic mice model for amyotrophic lateral sclerosis; assay type: in vivo
Experimental: as §1
At 70 days postnatal age, mice identified as positive carriers of the SOD1-G93A transgene were randomly assigned to a diazoxide-treatment or control group. An additional group composed by wild type C57BL/6J was also used as absolute control for spontaneous deaths. The treatment started at postnatal day 70 and lasted until the animal was sacrificed. […] Each group consists of 14 animals.
Around 75 days of postnatal age treated and not treated mice began to display less exploratory activity and less feeding behaviour as well as a loss of body weight. 20-30 days after, motor deficits were clearly observable, with a continuous loss of muscular mass and body weight. Between postnatal day 137 and 172 animals began to not be able to right themselves within 30 seconds from either side being this their last period of survival. Date and cause of death were recorded for each mouse. For humanitarian reasons, animals were closely monitored and sacrificed as moribund prior to actual death using criteria for severe moribund state. To determine duration of survival reliably and humanely, the moribund state, defined as the inability of mice to right themselves 30 seconds after being placed on a side was used. The moribund mice were considered as “dead”, and were euthanized using carbon dioxide. It is known that when animals reach this “moribund” stage they are unable to survive more than 24 additional hours.

[4] = tested on: C57BL/6J-TgN(SOD1-G93A)1Gur^dl transgenic mice; assay: Disease onset (time of peak body weight) in transgenic mice model for amyotrophic lateral sclerosis; assay type: in vivo; details: postnatal day 45 to 145
Experimental: as §1
At 40 days postnatal age, mice identified as positive carriers of the SOD1-G93A transgene were randomly assigned to a diazoxide-treatment or control group. The treatment started at postnatal day 45 and lasted until postnatal day 145. […] Each group consists of 30 animals.
The disease onset was determined as the time when the mouse reached its peak body weight.

[5] = tested on: C57BL/6J-TgN(SOD1-G93A)1Gur^dl transgenic mice; assay: Motor nerve conduction, tibialis anterior CMAP amplitude, in transgenic mice model for amyotrophic lateral sclerosis; assay type: in vivo; details: postnatal day 45 to 85; for increase in the amplitude of the tibialis anterior CMAP compared with the vehicle control group: 100% = mean CMAP amplitude of wild type control group
Experimental: as §1
At 40 days postnatal age, mice identified as positive carriers of the SOD1-G93A transgene were randomly assigned to a diazoxide-treatment or control group. An additional group composed by wild type C57BL/6J was also used as absolute control for nerve conduction measurements. The treatment started at postnatal day 45 and lasted until postnatal day 85. The drug was administered daily orally by gavage (p.o.), in a dose volume of 200 μl. […] Each group consists of 8 animals.
At postnatal day 85 days, animals were tested for nerve conduction measurament. For motor nerve conduction tests, the sciatic nerve was stimulated percutaneously by means of single pulses of 0.02 ms duration (Grass S88) delivered through a pair of needle electrodes placed at the sciatic notch. The Compound Muscle Action Potential (CMAP, M wave) was recorded from the tibialis anterior (TA) with microneedle electrodes. […] To ensure reproducibility, the recording needles were placed under microscope to secure the same placement on all animals guided by anatomical landmarks. During the tests, the mice body temperature was kept constant by means of a thermostated warming pad.

mice = details: 100 mg/kg (300 mg/m^2); cited from earlier work
[6] = 0.05 mg/kg/day (0.15 mg/m^2/day) p.o. from postnatal day 70
[7] = 0.1 mg/kg/day (0.3 mg/m^2/day) p.o. from postnatal day 70
[8] = 1 mg/kg/day (3 mg/m^2/day) p.o. from postnatal day 70

CC1=NS(=O)(=O)c2cc(Cl)ccc2N1 [Diazoxide]
hyperglycemia (glucose concentration equal or higher than 176 mg/dl) [1]: none of the two doses tested in this study produced hyperglycemia
hyperglycemia (glucose concentration equal or higher than 176 mg/dl) [2]: none of the two doses tested in this study produced hyperglycemia
Median Survival [3, 6]: 153 days
Percentage of mice alive at age of 21 weeks [3, 6]: 78.6%
Percentage of mice alive at age of 21 weeks ([3]; 0.05 mg/kg/day (0.15 mg/m^2/day) p.o. from postnatal day 70, listed as diazoxide): 78.6%
Median Survival [3, 7]: 152 days
Percentage of mice alive at age of 21 weeks [3, 7]: 71.4%
Percentage of mice alive at age of 21 weeks ([3]; 0.1 mg/kg/day (0.3 mg/m^2/day) p.o. from postnatal day 70, listed as diazoxide): 71.4%
Median Survival [3, 8]: 156 days
Percentage of mice alive at age of 21 weeks [3, 8]: 85.7%
Percentage of mice alive at age of 21 weeks ([3]; 1 mg/kg/day (3 mg/m^2/day) p.o. from postnatal day 70, listed as diazoxide): 85.7%
Median Age of Disease Onset ([4]; 0.8 mg/kg/day (2.4 mg/m^2/day) p.o.): 121 days
Median Age of Disease Onset ([4]; 4 mg/kg/day (12 mg/m^2/day) p.o.): 116 days
increase in the amplitude of the tibialis anterior CMAP compared with the vehicle control group ([5]; 0.8 mg/kg/day (2.4 mg/m2/day) p.o.): 17.1%
increase in the amplitude of the tibialis anterior CMAP compared with the vehicle control group ([5]; 4 mg/kg/day (12 mg/m2/day) p.o.): 3.4%
amplitude of the tibialis anterior CMAP compared to the vehicle control group ([5]; 8 mg/kg/day (24 mg/m^2/day) p.o.): no differences
effect on bupivacaine-induced acute CNS toxicity (latency of convulsions) (mice): reduce the bupivacaine-induced actute CNS toxicity
